{"source": "patent US12599608B2", "about": "“Methods for treating cardiac valve disease” (The Regents of the University of California, priority 2018, dated 2026)", "format_in_all_cases": "cell-based, human", "key": {"N1^+/− ECs [1]": {"tested_on": "N1^+/− ECs", "assay": "Validation trials of screen candidates by targeted RNA-seq with the trained KNN algorithm", "conditions": "duplicate or triplicate; one or more replicates classified as WT", "description": "(§1) Starting on day 15 of differentiation, WT ECs were exposed to 10 μM DMSO (dimethyl sulfoxide) (n=80) while isogenic N1^+/− ECs were exposed to either 10 μM DMSO (n=80) or one of the small molecules from the LOPAC (1280 molecules) (Sigma LO1280) or Sheng Ding (315 molecules) chemical libraries. DMSO or small molecules were renewed with EC media (ScienCell #1001) changes on alternating days until the cells were ultimately collected for analysis on day 21. ECs were imaged using the IN Cell Analyzer on day 21 to evaluate morphology and cell death; wells with extensive cell death were eliminated from final analyses. For validation experiments, promising small molecules identified from the initial screen were applied to N1^+/− ECs in duplicate or triplicate along with controls of DMSO-exposed WT and N1^+/− ECs (n=4 each) using the same process as the initial screen described above.\n(§2) ECs were lysed and RNA was isolated using the Qiagen RNeasy 96-well purification kit. RNA was diluted so that it was between the 10 pg-1 ng range accepted by the Cellular Research Precise targeted RNA-seq (RNA sequencing) system. Targeted RNA-seq libraries were prepared as per the Cellular Research Precise protocol (Rev 03092015), which includes both molecule and sample barcoding. The selected 119 target genes (see Table 1) included 3 low-expressing housekeeping genes for normalization (CHMP2A, C1orf43, REEP5) and either predicted central regulatory nodes or peripheral genes positioned within varied regions of the N1 network to permit identification of small molecules that affected central nodes as well as those that may have a synergistic effect in combination due to regulating different aspects of the network. Briefly, RNA was added to the Precise Encoding Plate containing indexed dT primer, dNTPs, and Spike-in mRNA controls and incubated at 65° C. for 3 minutes followed by cooling on ice. A master-mix of RT enzyme, RNase inhibitor, and buffer was then added to the samples, and they were incubated at 42° C. for 30 minutes followed by 80° C. for 5 minutes. Each plate of samples was combined into a single 2 ml tube and purified with AMPureXP beads. N1 PCR master-mix was added and samples were incubated for 94° C. for 2 minutes, followed by 15 cycles of 94° C. for 30 seconds, 55° C. for 3 minutes, and 68° C. for 1 minute, followed by 68° C. for 7 minutes. Samples were purified with AMPureXP beads and N2 PCR master-mix was added. Samples were incubated with the same thermal cycler program as above for 12 cycles. These final libraries were then purified with AMPureXP beads and analyzed for quality and concentration by Agilent Bioanalyzer and Illumina Library Quantification Kit (KAPA Biosystems), respectively. Libraries were normalized to equivalent concentration and pooled for paired-end 100 bp sequencing on an Illumina HiSeq 2500 instrument.\nSequencing data was analyzed using Cellular Research Precise Analysis Pipeline on the SevenBridges platform, which included analyzing sequencing quality with FASTQC, trimming adapters and filtering reads, demultiplexing based on sample barcodes, aligning reads with Bowtie 2, and determining the number of unique molecular indices per gene. Network inference was based on mutual information of gene expression from all DMSO- and small molecule-exposed samples as described in Margolin et al., BMC Bioinformatics. 2006; 7 Suppl 1:S7. Network diagram was generated using NetworkX (Hagberg et al., Exploring Network Structure, Dynamics, and Function using NetworkX. SciPy. 2008) based on network connections inferred from the small molecule screen data as described above with colors based on whole transcriptome RNA-seq gene expression of isogenic N1^+/− compared to WT ECs.\nPromising small molecules were identified using either K-nearest neighbor (KNN) or hierarchical clustering algorithms. […]"}, "N1^+/− iPSC-derived ECs": {"tested_on": "N1^+/− iPSC-derived ECs", "assay": "Network-based small molecule screen by targeted RNA-seq of 119 genes (KNN and hierarchical clustering)", "conditions": "for KNN classification of network gene expression of treated N1^+/− ECs: initial screen of 1595 small molecules, treatment day 15 to day 21 of differentiation, KNN k=2; for hierarchical clustering of transcriptional profile of treated N1-haploinsufficient ECs with WT ECs: initial screen, complete agglomeration method", "from_the_text": "TALEN-engineered isogenic human iPSCs that were either WT (wild-type) or N1^+/− were derived and characterized as detailed in Theodoris et al., Cell. 2015; 160:1072-1086. Isogenic iPSCs (induced pluripotent stem cells) were differentiated into ECs as previously described (Theodoris et al., 2015; White et al., Stem Cells. 2012; 31:92-103). On day 13 of the differentiation process, ECs were greater than 90% double-positive for CD31 (BD #558068) and CD144 (#FAB9381P) by FACS (fluorescence-activated cell sorting) analysis (FIGS. 9G-H). Small molecule experiments (described below) were conducted at day 15 of differentiation.\nas §1, §2\nSequencing data was analyzed using Cellular Research Precise Analysis Pipeline on the SevenBridges platform, which included analyzing sequencing quality with FASTQC, trimming adapters and filtering reads, demultiplexing based on sample barcodes, aligning reads with Bowtie 2, and determining the number of unique molecular indices per gene. Network inference was based on mutual information of gene expression from all DMSO- and small molecule-exposed samples as described in Margolin et al., BMC Bioinformatics. […]"}, "N1^+/− ECs [2]": {"tested_on": "N1^+/− ECs", "assay": "Whole transcriptome RNA-seq of N1^+/− ECs treated with network-correcting molecules", "description": "ECs were lysed and RNA was isolated using the Qiagen RNeasy Micro purification kit. RNA-seq libraries were constructed using the Clontech SMRTer Stranded RNA-seq Library Prep Kit for Illumina per kit protocol. Libraries were analyzed by Agilent Bioanalyzer, normalized to equivalent concentration, pooled, gel purified, and sequenced 75 bp paired-end on an Illumina NextSeq instrument with 10% PhiX.\nSequencing quality was assessed with FASTQC (located on the web by placing “www.” in front of “bioinformatics.babraham.ac.uk/projects/fastqc/”). Reads were aligned to the hg19 (Homo sapiens assembly February 2009) transcriptome and genome using the Spliced Transcripts Alignment to a Reference (STAR) Aligner (Dobin et al., Bioinformatics. 2012; 29:15-21) and differential expression was analyzed using Cuffdiff (Trapnell et al., Nat Biotechnol. 2012; 31:46-53). HOPACH was used for clustering with the correlation metric (van der Laan and Pollard; located on the web by placing “www.” in front of “bioconductor.org/packages/devel/bioc/manuals/hopach/man/hopach.pdf”. GO analyses were completed using GO-Elite and ToppGene (Chen et al., Nucleic Acids Research. 2009; 37:W305-W311; Zambon et al., Bioinformatics. 2012; 28:2209-2210). Network diagrams were generated using NetworkX (Hagberg et al., SciPy. 2008) based on network connections inferred from mRNA-seq gene expression of isogenic N1^+/− compared to WT ECs with colors based on whole transcriptome RNA-seq gene expression of DMSO- vs small molecule-treated WT and N1^+/− ECs."}}, "note": "Structures can show the parent of a compound that is named as a salt.", "data": [{"smiles": "O[C@@](CCN1CCCCC1)(c1ccccc1)[C@@H]1CC2C=CC1C2", "note": "(mixture of isomers) [Biperiden_hydrochloride]", "values": [{"measurement": "KNN classification of treated N1^+/− ECs in validation trials", "setting": "N1^+/− ECs [1]", "result": "classified as WT"}]}, {"smiles": "CCCCC[C@H](O)/C=C/[C@H]1[C@H](O)CC(=O)[C@@H]1CCCCCCC(=O)O", "note": "[Alprostadil]", "values": [{"measurement": "KNN classification of network gene expression of treated N1^+/− ECs", "setting": "N1^+/− iPSC-derived ECs", "result": "classified as WT"}]}, {"smiles": "CC(/C=C/c1cccc(Oc2ccc(F)cc2)c1)N(O)C(N)=O", "note": "(centres unmarked) [BWB70C]", "values": [{"measurement": "hierarchical clustering of transcriptional profile of treated N1-haploinsufficient ECs with WT ECs", "setting": "N1^+/− iPSC-derived ECs", "result": "cluster with WT ECs"}]}, {"smiles": "NC(=O)c1cc(N2CC2)c([N+](=O)[O-])cc1[N+](=O)[O-]", "note": "[CB_1954, 5-(1-aziridinyl)-2,4-dinitrobenzamide]", "values": [{"measurement": "KNN classification of network gene expression of treated N1^+/− ECs", "setting": "N1^+/− iPSC-derived ECs", "result": "classified as WT"}, {"measurement": "KNN classification of treated N1^+/− ECs in validation trials", "setting": "N1^+/− ECs [1]", "result": "classified as WT"}]}, {"smiles": "C=C1[C@@H](O)C2/C=C/C[C@H](C)CCCC(=O)/C=C/C(=O)O[C@]23CN[C@@H](Cc2ccccc2)[C@@H]3[C@@H]1C", "note": "(some centres unmarked) [Cytochalasin]", "values": [{"measurement": "KNN classification of network gene expression of treated N1^+/− ECs", "setting": "N1^+/− iPSC-derived ECs", "result": "classified as WT"}, {"measurement": "KNN classification of treated N1^+/− ECs in validation trials", "setting": "N1^+/− ECs [1]", "result": "classified as WT"}, {"measurement": "effect on dysregulation of cell motility genes", "setting": "N1^+/− ECs [2]; FIG. 2A", "result": "worsened the dysregulation"}, {"measurement": "repression of genes aberrantly activated in N1-haploinsufficient ECs", "setting": "N1^+/− ECs [2]; FIG. 2A", "result": "effective at downregulating arterial thrombosis and T cell signal genes"}, {"measurement": "repressive effect on cadherin-11 mRNA expression", "setting": "N1^+/− ECs [2]; FIG. 9A", "result": "strongest repressive effect"}]}, {"smiles": "CC(C)C[C@H](NC(=O)OCC1c2ccccc2-c2ccccc21)C(=O)O", "note": "[Fmoc-leu, Fmoc-Leucine]", "values": [{"measurement": "KNN classification of network gene expression of treated N1^+/− ECs", "setting": "N1^+/− iPSC-derived ECs", "result": "classified as WT"}, {"measurement": "KNN classification of treated N1^+/− ECs in validation trials", "setting": "N1^+/− ECs [1]", "result": "classified as WT"}]}, {"smiles": "Cc1ccnc(NS(=O)(=O)c2ccc(NC(=O)Nc3ccc(S(=O)(=O)Nc4nccc(C)n4)cc3)cc2)n1", "note": "[GSK837149A]", "values": [{"measurement": "KNN classification of network gene expression of treated N1^+/− ECs", "setting": "N1^+/− iPSC-derived ECs", "result": "classified as WT"}, {"measurement": "KNN classification of treated N1^+/− ECs in validation trials", "setting": "N1^+/− ECs [1]", "result": "classified as WT"}, {"measurement": "restoration of transcription of genes repressed in N1-haploinsufficient ECs", "setting": "N1^+/− ECs [2]; FIG. 2A", "result": "restored transcription of a complementary group of genes involved in angiogenesis and cardiovascular development"}, {"measurement": "restoration of the N1-dependent network as a whole", "setting": "N1^+/− ECs [2]; FIGS. 2E, 3A", "result": "restored more complementary genes to XCT790"}]}, {"smiles": "OC1(c2ccc(Cl)cc2)CCN(Cc2c[nH]c3ccccc23)CC1", "note": "[L-741,626]", "values": [{"measurement": "KNN classification of network gene expression of treated N1^+/− ECs", "setting": "N1^+/− iPSC-derived ECs", "result": "classified as WT"}]}, {"smiles": "C=CCN1CC[C@]23c4c5ccc(O)c4O[C@H]2/C(=N/NC(=O)c2ccccc2)CC[C@@]3(O)[C@H]1C5", "note": "[Naloxone benzoylhydrazone]", "values": [{"measurement": "KNN classification of network gene expression of treated N1^+/− ECs", "setting": "N1^+/− iPSC-derived ECs", "result": "classified as WT"}]}, {"smiles": "CCn1cc(C(=O)O)c(=O)c2cc(F)c(N3CCNCC3)cc21", "note": "[Norfloxacin]", "values": [{"measurement": "KNN classification of network gene expression of treated N1^+/− ECs", "setting": "N1^+/− iPSC-derived ECs", "result": "classified as WT"}]}, {"smiles": "NCCCCN", "note": "[Putrescine dihydrochloride, Butane-1,4-diamine]", "values": [{"measurement": "KNN classification of treated N1^+/− ECs in validation trials", "setting": "N1^+/− ECs [1]", "result": "classified as WT"}]}, {"smiles": "CC(C)(C(=O)NCC(F)(F)C(F)(F)F)C(=O)N[C@@H]1C(=O)Nc2ccccc2-c2ccccc21", "note": "[RO-4929097]", "values": [{"measurement": "KNN classification of network gene expression of treated N1^+/− ECs", "setting": "N1^+/− iPSC-derived ECs", "result": "classified as WT"}, {"measurement": "KNN classification of treated N1^+/− ECs in validation trials", "setting": "N1^+/− ECs [1]", "result": "classified as WT"}]}, {"smiles": "CC(C)(C)NCC(O)c1ccccc1Cl", "note": "(centres unmarked) [Tulobuterol_hydrochloride, tulobuterol hydrochloride]", "values": [{"measurement": "KNN classification of network gene expression of treated N1^+/− ECs", "setting": "N1^+/− iPSC-derived ECs", "result": "classified as WT"}]}, {"smiles": "OCc1ccc(-c2nn(Cc3ccccc3)c3ccccc23)o1", "note": "[YC-1]", "values": [{"measurement": "KNN classification of network gene expression of treated N1^+/− ECs", "setting": "N1^+/− iPSC-derived ECs", "result": "classified as WT"}]}, {"smiles": "C=CCc1ccccc1OCC(O)CNC(C)C", "note": "(centres unmarked) [alprenolol]", "values": [{"measurement": "hierarchical clustering of transcriptional profile of treated N1-haploinsufficient ECs with WT ECs", "setting": "N1^+/− iPSC-derived ECs", "result": "cluster with WT ECs"}]}, {"smiles": "CCCCc1oc2ccccc2c1C(=O)c1cc(I)c(OCCN(CC)CC)c(I)c1", "note": "[amiodarone]", "values": [{"measurement": "hierarchical clustering of transcriptional profile of treated N1-haploinsufficient ECs with WT ECs", "setting": "N1^+/− iPSC-derived ECs", "result": "cluster with WT ECs"}]}, {"smiles": "C[N+](C)(C)CCOC(N)=O", "note": "[carbachol]", "values": [{"measurement": "hierarchical clustering of transcriptional profile of treated N1-haploinsufficient ECs with WT ECs", "setting": "N1^+/− iPSC-derived ECs", "result": "cluster with WT ECs"}]}, {"smiles": "Cc1ccc(N(CC2=NCCN2)c2cccc(O)c2)cc1", "note": "[phentolamine mesylate]", "values": [{"measurement": "hierarchical clustering of transcriptional profile of treated N1-haploinsufficient ECs with WT ECs", "setting": "N1^+/− iPSC-derived ECs", "result": "cluster with WT ECs"}]}, {"smiles": "CN1C(C(=O)Nc2ccccn2)=C(O)c2ccccc2S1(=O)=O", "note": "[piroxicam]", "values": [{"measurement": "hierarchical clustering of transcriptional profile of treated N1-haploinsufficient ECs with WT ECs", "setting": "N1^+/− iPSC-derived ECs", "result": "cluster with WT ECs"}]}]}
